These are literature values, as cited in patent publication US20230112273A1, “Process for Producing an Aroma-Laden Gas, Aroma-Laden Gas, and Use of the Aroma-Laden Gas” (Döhler GmbH, priority 2020, published 2023).

The conditions of this data set: listed beside the composition of the aromatic substances in the laden solid phase (beer, Exemplary Embodiment 1).
As to `CCC(C)CO` (stereo not shown) [2-methyl-1-butanol], the lipophilicity (Log P) is 1.22.

As to `CC(C)CCO` [3-methyl-1-butanol], the log partition coefficient (Log P) was 1.22.

Take `CC(=O)OCCC(C)C` [3-methylbutyl acetate]: the “Log P” value was 2.12.

With `CCCCCCCCCC(=O)O` [decanoic acid], the log partition coefficient (Log P) was 3.96.

In the case of `CCCCCC(=O)O` [hexanoic acid], the “Log P” value was 1.84.

`CC(C)CO` [isobutanol]: the “Log P” value is given as 0.69.

In the case of `CCCCCCCC(=O)OCC` [octanoic acid ethyl ester], the lipophilicity (Log P) is 3.9.
